Reference: patent US6683103B2, “Sulfonamides for treatment of endothelin-mediated disorders” (Texas Biotechnology Corporation, priority 1997, dated 2004)
Where two headings read alike, the source gives them in different places.

Experiments:
human ETA receptors = molecular target: T1, human ETA receptors (Homo sapiens, UniProt P25101); assay: Binding Test #1: inhibition of 125I-ET-1 binding to ETA receptors (TE 671 cell membranes)
T1 construct: endogenous in cells; host or cells: TE 671 cells (ATCC HTB 139)
T1 sequence (P25101 21-427): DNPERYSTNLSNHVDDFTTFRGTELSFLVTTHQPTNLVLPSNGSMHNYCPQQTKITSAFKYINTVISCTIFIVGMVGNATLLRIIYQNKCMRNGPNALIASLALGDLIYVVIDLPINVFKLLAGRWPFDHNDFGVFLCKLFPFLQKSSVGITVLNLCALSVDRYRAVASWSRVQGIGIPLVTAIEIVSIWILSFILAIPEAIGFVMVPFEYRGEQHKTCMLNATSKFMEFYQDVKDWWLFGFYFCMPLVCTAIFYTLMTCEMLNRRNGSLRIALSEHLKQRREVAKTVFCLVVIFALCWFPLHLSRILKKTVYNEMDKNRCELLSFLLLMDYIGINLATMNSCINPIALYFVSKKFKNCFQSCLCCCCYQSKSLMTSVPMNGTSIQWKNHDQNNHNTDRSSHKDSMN
Source text: (§1) Compounds that are potential endothelin antagonists are identified by testing their ability to compete with ^125I-labeled ET-1 for binding to human ETA receptors or ETB receptors present on isolated cell membranes. The effectiveness of the test compound as an antagonist or agonist of the biological tissue response of endothelin can also be assessed by measuring the effect on endothelin induced contraction of isolated rat thoracic aortic rings. The ability of the compounds to act as antagonists or agonists for ETB receptors can be assess by testing the ability of the compounds are to inhibit endothelin-1 induced prostacyclin release from cultured bovine aortic endothelial cells.
A. Endothelin Binding Inhibition—Binding Test #1: Inhibition of Binding to ETA Receptors
TE 671 cells (ATCC Accession No. HTB 139) express ETA receptors. These cells were grown to confluence in T-175 flasks. Cells from multiple flasks were collected by scraping, pooled and centrifuged for 10 min at 190×g. The cells were resuspended in phosphate buffered saline (PBS) containing 10 mM EDTA using a Tenbroeck homogenizer. The suspension was centrifuged at 4° C. at 57,800×g for 15 min, the pellet was resuspended in 5 ml of buffer A (5 mM HEPES buffer, pH 7.4 containing aprotinin (100 KIU/ml)) and then frozen and thawed once. 5 ml of Buffer B (5 mM HEPES Buffer, pH 7.4 containing 10 mM MnCl2 and 0.001% deoxyribonuclease Type 1) was added, the suspension mixed by inversion and then incubated at 37° C. for 30 minutes. The mixture was centrifuged at 57,800×g as described above, the pellet washed twice with buffer A and then resuspended in buffer C (30 mM HEPES buffer, pH 7.4 containing aprotinin (100 KIU/ml) to give a final protein concentration of 2 mg/ml and stored at −70° C. until use.
The membrane suspension was diluted with binding buffer (30 mM HEPES buffer, pH 7.4 containing 150 mM NaCl, 5mM MgCl2, 0.5% Bacitracin) to a concentration of 8 μg/50 μl. ^125I-endothelin-1 (3,000 cpm, […]) was added to 50 μL of either: (A) endothelin-1 (for non specific binding) to give a final concentration 80 nM); (B) binding buffer (for total binding); or (C) a test compound (final concentration 1 nM to 100 μM). The membrane suspension (50 μL), containing up to 8 μg of membrane protein, was added to each of (A), (B), or (C). Mixtures were shaken, and incubated at 4° C. for 16-18 hours, and then centrifuged at […] for 25 min at 2,500×g. Alternatively, the incubation was conducted at 24° C. […] This, must be kept in mind when comparing IC50 concentrations among compounds provided herein.
The supernatant, containing unbound radioactivity, was decanted and the pellet counted on a Genesys multiwell gamma counter. The degree of inhibition of binding (D) was calculated according to the following equation: [formula]
Each test was generally performed in triplicate.

human ETB receptor = molecular target: T2, human ETB receptor (Homo sapiens, UniProt P24530); assay: Binding Test #2: inhibition of 125I-ET-1 binding to ETB receptors (transfected COS7 cell membranes); details: read-out: ETB
T2 construct: expressed in transfected cells; host or cells: COS7 cells
T2 sequence (P24530 27-442): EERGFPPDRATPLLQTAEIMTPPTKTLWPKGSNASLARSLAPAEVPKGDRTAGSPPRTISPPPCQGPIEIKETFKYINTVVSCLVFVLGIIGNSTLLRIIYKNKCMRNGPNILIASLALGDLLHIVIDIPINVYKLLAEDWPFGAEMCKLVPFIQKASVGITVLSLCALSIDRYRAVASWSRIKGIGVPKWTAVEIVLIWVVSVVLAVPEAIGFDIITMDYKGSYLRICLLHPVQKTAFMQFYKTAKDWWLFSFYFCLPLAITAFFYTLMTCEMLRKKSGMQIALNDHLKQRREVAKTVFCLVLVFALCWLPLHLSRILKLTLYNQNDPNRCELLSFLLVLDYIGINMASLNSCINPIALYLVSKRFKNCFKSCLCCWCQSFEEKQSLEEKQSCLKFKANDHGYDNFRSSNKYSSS
Source text: as §1
B. Endothelin Binding Inhibition—Binding Test #2: Inhibition of Binding to ETB Receptors
COS7 cells were transfected with DNA encoding the ETB receptor, The resulting cells, which express the human ETB receptor, were grown to confluence in T-150 flasks. Membrane was prepared as described above. The binding assay was performed as described above using the membrane preparation diluted with binding buffer to a concentration of 1 μg/50 μl.
Briefly, the COS7 cells, described above, that had been transfected with DNA encoding the ETB receptor and express the human ETB receptor on their surfaces were grown to confluence in T-1 75 flasks. Cells from multiple flasks were collected by scraping, pooled and centrifuged for 10 min at 190×g. The cells were resuspended in phosphate buffered saline (PBS) containing 10 mM EDTA using a Tenbroeck homogenizer. The suspension was centrifuged at 4° C. 57,800 X g for 15 min, the pellet was resuspended in 5 ml of buffer A (5mM HEPES buffer, pH 7.4 containing aprotinin (100 KIU/ml)) and then frozen and thawed once. Five ml of Buffer B (5 mM HEPES Buffer, pH 7.4 containing 10 mM MnCl2 and 0.001% deoxyribonuclease Type 1) was added, the suspension mixed by inversion and then incubated at 37° C. for 30 minutes. The mixture was centrifuged at 57,800×g as described above, the pellet washed twice with buffer A and then resuspended in buffer C (30 mM HEPES buffer, pH 7.4 containing aprotinin (100 KIU/ml) to give a final protein concentration of 2 mg/ml.
The binding assay was performed as described above using the membrane preparation diluted to give 1 μg/50 μl of binding buffer.

[1] = Table 1, incubation at 4° C., read-out: ETA
[2] = Table 1, † incubation at 24° C., read-out: ETA
[3] = Table 1, † incubation at 24° C.
[4] = Table 2, incubation at 4° C., read-out: ETA

In the case of Cc1noc(NS(=O)(=O)c2cc(Cl)c(Cl)s2)c1Br [N-(4-Bromo-3-methyl-5-isoxazolyl)-4,5-dichlorothiophene-2-sulfonamide], the IC50 (human ETA receptors; [1]) is reported as about 450 nM and the IC50 (human ETB receptor; Table 1, incubation at 4° C.) is reported as about 4900 nM.
Cc1noc(NS(=O)(=O)c2ccsc2C(=O)Nc2ccc(C(C)(C)C)cc2)c1Br [N-(4-bromo-3-methyl-5-isoxazolyl)-2-(4-t-butylphenyl)aminocarbonylthiophene-3-sulfonamide] was tested, and the IC50 (human ETA receptors; [1]) was 11 nM and the IC50 (human ETB receptor; Table 1, incubation at 4° C.) was 2820 nM.
For Cc1noc(NS(=O)(=O)c2ccc(-c3cccc(N)c3)s2)c1Br [N-(4-bromo-3-methyl-5-isoxazolyl)-5-(3-aminophenyl)thiophene-2-sulfonamide], the IC50 (human ETA receptors; [1]) was 537 nM, the IC50 (human ETA receptors; [2]) was 1440 nM and the IC50 (human ETB receptor; Table 1, incubation at 4° C.) was 1070 nM. It also gave an IC50 (human ETB receptor; [3]) of 2630 nM.
For Cc1noc(NS(=O)(=O)c2ccsc2)c1Br [N-(4-bromo-3-methyl-5-isoxazolyl)thiophene-3-sulfonamide], the IC50 (human ETA receptors; [1]) was 135 nM and the IC50 (human ETB receptor; Table 1, incubation at 4° C.) was 23400 nM.
In the case of Cc1noc(NS(=O)(=O)c2ccccc2-c2ccccc2)c1C [N-(3,4-dimethyl-5-isoxazolyl)-2-biphenylsulfonamide], the IC50 (human ETA receptors; [4]) is reported as 8.3 ± 1.4 nM, the IC50 (human ETA receptors; read-out: IC50 for ETA receptors) is reported as about 8 nM and the IC50 (human ETB receptor; Table 2, incubation at 4° C.) is reported as 12800 nM.
Cc1noc(NS(=O)(=O)c2cc(-c3ccc(C(C)C)cc3)cs2)c1Br [N-(4-bromo-3-methyl-5-isoxazolyl)-4-(4′-isopropylphenyl))thiophene-2-sulfonamide] gave an IC50 (human ETA receptors; [1]) of 5500 nM and an IC50 (human ETB receptor; Table 1, incubation at 4° C.) of 1300 nM.
With “N-(4-bromo-3-methyl-5-isoxazolyl)-2′-methoxyphenyl-4-biphenylsulfonamide” the IC50 (human ETA receptors; [4]) was 3300 ± 3500 nM and the IC50 (human ETB receptor; Table 2, incubation at 4° C.) was 410 ± 140 nM.
With Cc1cccc(-c2ccc(S(=O)(=O)Nc3onc(C)c3Br)s2)c1 [N-(4-bromo-3-methyl-5-isoxazolyl)-5-(3-tolyl)thiophene-2-sulfonamide] the IC50 (human ETA receptors; [2]) was 15000 nM and the IC50 (human ETB receptor; [3]) was 4200 nM.
With Cc1ccc(NC(=O)c2ccc(S(=O)(=O)Nc3onc(C)c3Br)s2)cc1 [N-(4-bromo-3-methyl-5-isoxazolyl)-5-(4-tolyl)aminocarbonyl)thiophene-2-sulfonamide] the IC50 (human ETA receptors; [2]) was 28000 nM and the IC50 (human ETB receptor; [3]) was 8600 nM.
Cc1noc(NS(=O)(=O)c2c(C(=O)O)n(C)c3ccccc23)c1Br [N-(4-bromo-3-methyl-5-isoxazolyl)-2-carboxyl-1-methylidole-3-sulfonamide] showed an IC50 (human ETA receptors; [2]) of 590 nM and an IC50 (human ETB receptor; [3]) of 104000 nM.
Work on Cc1noc(NS(=O)(=O)c2ccc(-c3cccc([N+](=O)[O-])c3)s2)c1Br [N-(4-bromo-3-methyl-5-isoxazolyl)-5-(3-nitrophenyl)thiophene-2-sulfonamide] yielded an IC50 (human ETA receptors; [2]) of 26000 nM and an IC50 (human ETB receptor; [3]) of 4500 nM.
Compound “N-(4-bromo-3-methyl-5-isoxazolyl)-3′-methoxyphenyl-4-biphenylsulfonamide” has an IC50 (human ETA receptors; [4]) of 4970 ± 3400 nM, an IC50 (human ETA receptors; Table 2, † incubation at 24° C., read-out: ETA) of 163000 ± 7140 nM and an IC50 (human ETB receptor; Table 2, incubation at 4° C.) of 660 ± 250 nM. It also gave an IC50 (human ETB receptor; Table 2, † incubation at 24° C.) of 2080 ± 230 nM.
Cc1cc2c(cc1CCc1ccsc1S(=O)(=O)Nc1onc(C)c1Br)OCO2 [N-(4-bromo-3-methyl-5-isoxazolyl)-3-[2-methyl-4,5-(methylenedioxy)phenethyl]thiophene-2-sulfonamide] showed an IC50 (human ETA receptors; [2]) of about 100 nM and an IC50 (human ETB receptor; [3]) of about 5000 nM.
Compound Cc1noc(NS(=O)(=O)c2sccc2Sc2ccccc2)c1Br [N-(4-bromo-3-methyl-5-isoxazolyl)-3-(phenylthio)thiophene-2-sulfonamide] has an IC50 (human ETA receptors; [2]) of 80.1 nM and an IC50 (human ETB receptor; [3]) of 3680 nM.
In the case of Cc1cc2c(cc1C=CCc1ccsc1S(=O)(=O)Nc1onc(C)c1Br)OCO2 [N-(4-bromo-3-methyl-5-isoxazolyl)-3-[2-methyl-4,5-(methylenedioxy)cinnamyl]thiophene-2-sulfonamide], the IC50 (human ETA receptors; [2]) is reported as about 100 nM and the IC50 (human ETB receptor; [3]) is reported as about 6000 nM.
In the case of Cc1ccc(C=CCc2sccc2S(=O)(=O)Nc2onc(C)c2Br)c(C)c1 [N-(4-bromo-3-methyl-5-isoxazolyl)-2-(2,4-dimethylcinnamyl)thiophene-3-sulfonamide], the IC50 (human ETA receptors; [2]) is reported as 166 nM and the IC50 (human ETB receptor; [3]) is reported as 2970 nM.
In the case of Cc1ccc(/C=C/c2sccc2S(=O)(=O)Nc2onc(C)c2Br)cc1, the IC50 (human ETA receptors; [2]) is reported as 260 nM and the IC50 (human ETB receptor; [3]) is reported as 413 nM.
For COc1ccc2c(S(=O)(=O)Nc3onc(C)c3Cl)c(Cc3ccc4c(c3)OCO4)sc2c1 [N-(4-chloro-3-methyl-5-isoxazolyl)-6-methoxy-2-[3,4-(methylenedioxy)benzyl]benzo[b]thiophene-3-sulfonamide], the IC50 (human ETA receptors; [2]) was about 2000 nM and the IC50 (human ETB receptor; [3]) was 2390 nM.
Cc1noc(NS(=O)(=O)c2ccsc2NC(=O)Nc2sccc2S(=O)(=O)Nc2onc(C)c2C)c1C [N,N′-bis{3-[3,4-dimethyl-5-isoxazolyl)aminosulfonyl]thien-2-yl}urea] was tested, and the IC50 (human ETA receptors; [1]) was 1010 ± 1030 nM, the IC50 (human ETA receptors; [2]) was 2700 nM and the IC50 (human ETB receptor; Table 1, incubation at 4° C.) was 3700 ± 2700 nM. For the same compound, the IC50 (human ETB receptor; [3]) was 5900 nM.
Compound Cc1noc(NS(=O)(=O)c2sccc2-c2ccccc2)c1Br [N-(4-bromo-3-methyl-5-isoxazolyl)-3-phenylthiophene-2-sulfonamide] has an IC50 (human ETA receptors; [1]) of 54.7 nM and an IC50 (human ETB receptor; Table 1, incubation at 4° C.) of 11100 nM.
Cc1noc(NS(=O)(=O)c2ccsc2CCc2ccc3c(c2)OCO3)c1Br [N-(4-bromo-3-methyl-5-isoxazolyl)-2-[(3,4-methylenedioxy)phenethyl]thiophene-3-sulfonamide] showed an IC50 (human ETA receptors; [2]) of 210 nM and an IC50 (human ETB receptor; [3]) of 9200 nM.
CCC(C)c1ccc(NC(=O)c2sccc2S(=O)(=O)Nc2onc(C)c2Br)cc1 (centres unmarked) [N-(4-bromo-3-methyl-5-isoxazolyl)-2-[N-(4-sec-butylphenyl)aminocarbonyl]thiophene-3-sulfonamide] was tested, and the IC50 (human ETA receptors; [1]) was about 8 nM and the IC50 (human ETB receptor; Table 1, incubation at 4° C.) was 1760 nM.
Cc1noc(NS(=O)(=O)c2cccs2)c1Br [N-(4-bromo-3-methyl-5-isoxazolyl)2-thiophenesulfonamide] was tested, and the IC50 (human ETA receptors; [1]) was 95 ± 70 nM and the IC50 (human ETB receptor; Table 1, incubation at 4° C.) was 27700 ± 15000 nM.
